In paper PMC6026185 (Scientific Reports, 2018):
“Also recorded” adds a separate entry of the source. Read-outs that look alike come from different tables or passages of the source. One block for each molecule: values may come before it.

Legend:
[1] = in words, cited from earlier work
[2] = parameters: method as in DrugBank database; settings: ref DrugBank database; cited from earlier work
hNKCC1B = biological target: T1, hNKCC1B (Homo sapiens, UniProt P55011); test: 86Rb+ uptake in hNKCC1B-expressing Xenopus laevis oocytes; assay type: cell-based; settings: 5 min, corrected for uninjected oocytes, median and range of 3–7 experiments
T1 construct: expressed in transfected cells; host or cells: Xenopus laevis oocytes injected with cRNA (pXOOM vector)
T1 sequence (P55011 1-1196 isoform P55011-3): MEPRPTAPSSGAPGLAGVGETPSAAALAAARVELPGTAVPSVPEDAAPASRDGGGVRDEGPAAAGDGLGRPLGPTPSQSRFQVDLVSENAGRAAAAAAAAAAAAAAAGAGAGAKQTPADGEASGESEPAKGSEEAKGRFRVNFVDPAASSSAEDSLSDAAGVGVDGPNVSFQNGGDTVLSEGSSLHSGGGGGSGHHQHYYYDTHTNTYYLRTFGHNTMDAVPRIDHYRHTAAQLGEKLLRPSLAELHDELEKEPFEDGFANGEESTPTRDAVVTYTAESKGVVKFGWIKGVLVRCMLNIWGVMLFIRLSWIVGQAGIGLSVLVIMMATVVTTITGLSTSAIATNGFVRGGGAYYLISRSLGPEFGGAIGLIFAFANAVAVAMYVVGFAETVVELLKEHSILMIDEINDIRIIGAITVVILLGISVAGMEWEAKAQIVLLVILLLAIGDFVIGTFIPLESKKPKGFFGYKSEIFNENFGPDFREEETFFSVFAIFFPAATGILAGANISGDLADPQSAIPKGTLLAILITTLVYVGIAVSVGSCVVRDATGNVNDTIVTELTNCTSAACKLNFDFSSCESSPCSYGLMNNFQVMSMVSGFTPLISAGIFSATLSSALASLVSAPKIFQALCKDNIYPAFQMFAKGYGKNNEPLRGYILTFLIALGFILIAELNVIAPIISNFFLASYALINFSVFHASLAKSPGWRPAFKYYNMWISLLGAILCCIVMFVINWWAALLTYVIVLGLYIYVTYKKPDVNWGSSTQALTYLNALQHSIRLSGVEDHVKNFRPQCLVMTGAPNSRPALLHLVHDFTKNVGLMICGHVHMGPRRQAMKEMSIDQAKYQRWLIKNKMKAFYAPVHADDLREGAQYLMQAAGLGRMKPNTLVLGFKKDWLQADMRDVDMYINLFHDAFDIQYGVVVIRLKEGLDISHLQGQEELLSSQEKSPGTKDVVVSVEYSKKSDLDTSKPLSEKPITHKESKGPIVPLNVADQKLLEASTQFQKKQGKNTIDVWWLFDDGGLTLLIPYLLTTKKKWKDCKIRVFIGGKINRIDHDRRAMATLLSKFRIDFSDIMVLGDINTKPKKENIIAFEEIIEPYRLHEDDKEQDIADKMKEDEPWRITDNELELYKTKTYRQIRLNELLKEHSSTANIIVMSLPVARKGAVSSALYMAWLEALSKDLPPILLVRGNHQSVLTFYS

[3] = parameters: method as in DrugBank database; settings: ref DrugBank database; cited from earlier work; remark: listed apart in the source
NKCC2 [4] = tested on: NKCC2; parameters: method as in Greven[53]; settings: Rat kidney TAL; ref Greven[53]; cited from earlier work
[5] = parameters: method as in ref [30] = [30]; 30. Reilly, R. F. & Jackson, E. K. Goodman & Gilman’s. The Pharmacological Basis of Therapeutics . 12th ed. Brunton, L. L., Chabner, B. A. & Knollmann, B. C. (eds), pp. 671–719 (McGraw-Hill, New York); settings: ref [30]; cited from earlier work
hNKCC1A = biological target: T2, hNKCC1A (Homo sapiens, UniProt P55011); test: 86Rb+ uptake in hNKCC1A-expressing Xenopus laevis oocytes; assay type: cell-based; settings: for IC50 / IC50 for hNKCC1A, IC50 (µM) (range): 86Rb+ uptake, Xenopus oocytes, 5 min, corrected for uninjected oocytes, median and range of 3–7 experiments; for Ratio hNKCC1A/ hNKCC1B: ratio of IC50s
T2 construct: Full-length NKCC1 (NKCC1A) comprises ~1200 amino acids; expressed in transfected cells; host or cells: Xenopus laevis oocytes injected with cRNA (pXOOM vector)
T2 sequence (P55011 1-1212): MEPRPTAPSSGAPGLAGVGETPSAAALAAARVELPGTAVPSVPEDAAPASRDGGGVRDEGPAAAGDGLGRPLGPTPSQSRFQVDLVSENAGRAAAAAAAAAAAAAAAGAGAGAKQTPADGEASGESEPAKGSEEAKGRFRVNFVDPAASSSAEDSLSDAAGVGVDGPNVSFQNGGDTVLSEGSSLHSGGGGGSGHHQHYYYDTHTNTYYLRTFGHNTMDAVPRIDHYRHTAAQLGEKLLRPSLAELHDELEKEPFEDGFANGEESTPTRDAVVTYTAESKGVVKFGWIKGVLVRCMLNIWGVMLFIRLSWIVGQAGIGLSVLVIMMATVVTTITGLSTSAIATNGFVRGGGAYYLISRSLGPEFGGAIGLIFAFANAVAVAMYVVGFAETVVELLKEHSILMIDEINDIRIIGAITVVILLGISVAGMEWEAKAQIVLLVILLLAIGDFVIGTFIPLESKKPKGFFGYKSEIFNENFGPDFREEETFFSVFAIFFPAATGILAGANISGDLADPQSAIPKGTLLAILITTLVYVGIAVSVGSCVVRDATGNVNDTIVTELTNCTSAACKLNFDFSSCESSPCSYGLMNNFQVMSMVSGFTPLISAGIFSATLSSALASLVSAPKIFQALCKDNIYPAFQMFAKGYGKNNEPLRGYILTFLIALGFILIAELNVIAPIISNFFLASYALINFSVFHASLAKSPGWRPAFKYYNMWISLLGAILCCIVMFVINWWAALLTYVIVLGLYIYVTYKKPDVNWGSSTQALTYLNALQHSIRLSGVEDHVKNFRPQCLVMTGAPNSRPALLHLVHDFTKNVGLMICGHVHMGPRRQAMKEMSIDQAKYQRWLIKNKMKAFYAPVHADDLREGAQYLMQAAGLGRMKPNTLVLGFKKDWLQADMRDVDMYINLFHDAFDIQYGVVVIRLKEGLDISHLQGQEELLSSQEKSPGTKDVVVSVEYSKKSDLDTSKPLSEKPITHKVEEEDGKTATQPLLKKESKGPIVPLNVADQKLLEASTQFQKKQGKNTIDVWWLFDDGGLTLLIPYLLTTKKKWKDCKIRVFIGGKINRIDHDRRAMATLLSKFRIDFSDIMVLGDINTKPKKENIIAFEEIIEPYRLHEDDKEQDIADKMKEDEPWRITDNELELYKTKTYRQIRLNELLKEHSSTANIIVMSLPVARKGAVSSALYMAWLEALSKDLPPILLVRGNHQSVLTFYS

[6] = rats, cited from earlier work
NKCC1 = settings: Activated state, isoforms not differentiated, turkey erythrocytes, chick cardiac cells, winter flounder intestine, ref Palfrey et al.[48], Frelin et al.[49], O’Grady et al.[50], cited from earlier work
NKCC2 [7] = tested on: NKCC2; parameters: method as in Schlatter et al.[23]; settings: Rabbit kidney TAL; ref Schlatter et al.[23]; cited from earlier work
hNKCC2 isoform B = settings: Xenopus oocytes; ref Gillen et al.[55]; Carota et al.[56]; read-out: IC50 (µM) NKCC2 (hB); cited from earlier work
NKCC2 [8] = tested on: NKCC2; parameters: method as in ref Palfrey et al.[48]; Schlatter et al.[23]; Frelin et al.[49]; O’Grady et al.[50]; Glanville et al.[51]; Hannaert et al.[52]; settings: Rabbit kidney TAL; rat kidney TAL; NKCC2 isoforms not differentiated; ref Palfrey et al.[48]; Schlatter et al.[23]; Frelin et al.[49]; O’Grady et al.[50]; Glanville et al.[51]; Hannaert et al.[52]; cited from earlier work
hNKCC2 isoform A = settings: Xenopus oocytes; ref Gillen et al.[55]; Carota et al.[56]; read-out: IC50 (µM) NKCC2 (hA); cited from earlier work
NKCC2 [9] = tested on: NKCC2; parameters: method as in Wittner et al.[54]; settings: Mouse and rabbit kidney TAL; ref Wittner et al.[54]; cited from earlier work
[10] = mIMCD-K2 cells, rat erythrocytes and thymocytes, Schlatter et al.[23], Glanville et al.[51], Hannaert et al.[52]

Compound: NS(=O)(=O)c1cc(C(=O)O)cc(NCc2ccccc2)c1Oc1ccccc1 [Benzmetanide]
IC50 (NKCC1): 0.05 to 0.3 µM

Compound: CCOC(=O)/C=C1\SC(N2CCCCC2)C(=O)N1C (stereo not drawn) [Etozolin]
IC50 (NKCC2 [7]): > 100 µM

Compound: NS(=O)(=O)c1cc(C(=O)O)c(NCc2ccco2)cc1Cl [Furosemide]
IC50 (hNKCC2 isoform B): 7.2 µM
IC50 (NKCC2 [8]): 3 to 7.1 µM
IC50 (NKCC1; [10]): 7 to 23 µM
IC50 (hNKCC2 isoform A): 15.1 µM

Compound: CC1(c2ccccc2)Cc2cc(OCC(=O)O)c(Cl)c(Cl)c2C1=O (stereo not drawn) [Indacrinone]
IC50 (NKCC2 [7]): 12 µM

Compound: CC(c1ccc(Cl)c(Cl)c1)N1N=C(N)CC1=O (stereo not drawn) [Muzolimine]
IC50 (NKCC2 [7]): > 100 µM

Compound: CN1C(=O)C(N2CCCCC2)S/C1=C/C(=O)O (stereo not drawn) [Ozolinon]
IC50 (NKCC2 [7]): 11 µM

Compound: CN=C1SCC(O)(c2ccc(Cl)c(S(N)(=O)=O)c2)N1C (stereo not drawn) [Tizolemide]
IC50 (NKCC2 [7]): > 100 µM

Compound: Cc1cccc(C)c1NC(=O)c1cc(S(N)(=O)=O)c(Cl)cc1O [Xipamide, 4-chloro-5-sulfamoyl-2′,6′-salicyloxylidide]
IC50 (hNKCC1B): > 1750 µM
IC50 for hNKCC1B, IC50 (µM) (range) (hNKCC1B): did not inhibit; also recorded: inactive
IC50 (hNKCC1A): > 1750 µM
IC50 for hNKCC1A, IC50 (µM) (range) (hNKCC1A): did not inhibit; also recorded: inactive

Further lines, with some results ahead:

IC50 (hNKCC1B): 0.197 µM
IC50 (hNKCC1A): 0.246 µM
Ratio hNKCC1A/ hNKCC1B (hNKCC1A): 1.25
Compound: NS(=O)(=O)c1cc(-c2nnn[nH]2)c(NCc2cccs2)cc1Cl [Azosemide]
plasma protein binding ([1]; ref [31]): highly bound to plasma proteins
pKa [2]: 7.38
Lipophilicity (logP) [3]: 2.38
IC50 (NKCC2 [4]): 3 µM
clinical diuretic potency relative to furosemide [5]: about the same diuretic potency as furosemide
brain levels ([6]; 30 min following i.v. 20 mg/kg, below detection limit, ref [32]): < 0.05 µg/g

IC50 (hNKCC1B): 3070 µM
IC50 (hNKCC1A): 1680 µM
Compound: C=C(CC)C(=O)c1ccc(OCC(=O)O)c(Cl)c1Cl [Ethacrynic acid]
IC50 (NKCC2 [7]): 5.1 µM

IC50 (hNKCC1B): > 100 µM
IC50 for hNKCC1B, IC50 (µM) (range) (hNKCC1B; listed as glibenclamide): did not inhibit; also recorded: inactive
IC50 (hNKCC1A): > 100 µM
IC50 for hNKCC1A, IC50 (µM) (range) (hNKCC1A; listed as glibenclamide): did not inhibit; also recorded: inactive
Compound: COc1ccc(Cl)cc1C(=O)NCCc1ccc(S(=O)(=O)NC(=O)NC2CCCCC2)cc1 [Glybenclamide, 5-chloro-N-(2-{4-[(cyclohexylcarbamoyl)sulfamoyl]phenyl}ethyl)-2-methoxybenzamide]

IC50 (hNKCC1B): 1.66 µM
IC50 (hNKCC1A): 3.35 µM
Ratio hNKCC1A/ hNKCC1B (hNKCC1A): 2.02
Compound: NS(=O)(=O)c1cc(C(=O)O)cc(N2CCCC2)c1Oc1ccccc1 [Piretanide]
IC50 (NKCC2 [8]): 1 to 1.1 µM
IC50 (NKCC1; [10]): 0.5 to 3 µM

IC50 (hNKCC1B): 1780 µM
IC50 (hNKCC1A): 489 µM
Ratio hNKCC1A/ hNKCC1B (hNKCC1A): 0.275
Compound: O=C(O)COc1ccc(C(=O)c2cccs2)c(Cl)c1Cl [Ticrynafen]
IC50 (NKCC2 [7]): 410 µM

IC50 (hNKCC1B): 8.19 µM
IC50 (hNKCC1A): 6.18 µM
Ratio hNKCC1A/ hNKCC1B (hNKCC1A): 0.755
Compound: Cc1cccc(Nc2ccncc2S(=O)(=O)NC(=O)NC(C)C)c1 [Torasemide]
plasma protein binding ([1]; ref [33]): highly bound to plasma proteins
clinical diuretic potency relative to furosemide [5]: about 3 times
brain:plasma concentration ratio ([6]; 30 min after i.v. 10 mg/kg, ref [34]): 0.00024
IC50 (NKCC2 [9]): 0.3 µM

IC50 (hNKCC1B): > 1000 µM
IC50 (hNKCC1A): > 1000 µM
Compound: NS(=O)(=O)c1cc(C(=O)NN2CC3C4CCC(C4)C3C2)ccc1Cl (stereo not drawn) [Tripamide]
